Assay results published in patent US7524964B2, “Tetrahydrothiopyrano pyrazole cannabinoid modulators” (Janssen Pharmaceutica NV, priority 2005, dated 2009).
Like-named read-outs stand apart in the source and are kept apart here.

How the values were obtained:
human CB-2 receptor = target: T1, human CB-2 receptor (Homo sapiens, UniProt P34972); assay: Binding assay, cannabinoid CB2 receptor ([3H]-CP-55,940 displacement); details: read-out: CB2 binding percent inhibition; for inhibition at 1 µM: test concentration 1 μM (superscript b)
T1 construct: expressed in transfected cells; host or cells: SK-N-MC cells, pcDNA3 CB-2 (human), semi-purified membranes
Description: (§1) Binding Assay for CB1 or CB2 Agonists or Inverse Agonists
(§2) The human CB-1 and CB-2 receptors were stably expressed in SK-N-MC cells transfected with pcDNA3 CB-1 (human) or pcDNA3 CB-2 (human). The cells were grown in T-180 cell culture flasks under standard cell culture conditions at 37° C. in a 5% CO2 atmosphere. The cells were harvested by trypsinization and homogenized in a homogenization buffer (10 mM Tris, 0.2 mM MgCl2, 5 mM KCl, with protease inhibitors aprotinin, leupeptin, pepstatin A and bacitracin) and centrifuged (2000 g). The supernatant was then centrifuged in 2M sucrose (31,300 g) to produce a semi-purified membrane pellet. The pellet was resuspended in homogenization and store at −80° C.
(§3) On the day of the assay, the pellet was thawed on ice and diluted in assay buffer (50 mM Tris-HCl, 5 mM MgCl2, 2.5 mM EDTA, 0.5 mg/mL fatty acid free bovine serum albumin, pH 7.5). The diluted membrane was added with buffer, test compound or standard and the radioligand [H]^3+-CP-55,940_(0.2 nM) to the wells of a 96-well polypropylene plate. Non-specific binding was measured in wells containing 10 uM WIN 55,212. The plate was covered and incubated for 90 minutes at 30° C. The contents were then aspirated onto a Packard Unifilter G/C filter bottom plate prewet with 0.5% polyethyleneimine. The wells of the polypropylene plate were rinsed and aspirated seven times with a 0.9% saline-0.5% Tween 20 solution. The Unifilter plate was dried, a scintillation cocktail was added to each well and the counts representing binding were quantitated in a TopCount scintillation counter.
(§4) The IC50 binding values for compounds tested were calculated by linear regression and were obtained from studies in which varying compound concentrations were used. Where an IC50 was not obtained, test results are provided as percent inhibition at a test concentration of ^a0.2 μM, ^b1 μM or ^c10 μM.

human CB1 receptor = human CB1 receptor (Homo sapiens, UniProt P21554); assay: Binding assay, cannabinoid CB1 receptor ([3H]-CP-55,940 displacement); parameters: expressed in transfected cells; host or cells: SK-N-MC cells, pcDNA3 CB-1 (human), semi-purified membranes; details: for inhibition at 1 µM: test concentration 1 μM (superscript b); for inhibition at 0.2 µM: test concentration 0.2 μM (superscript a)
Description: as §1, §2, §3, §4

[1] = test concentration 0.2 μM (superscript a)
[2] = read-out: CB1 binding percent inhibition

Chain of human CB1 receptor (P21554 whole entry): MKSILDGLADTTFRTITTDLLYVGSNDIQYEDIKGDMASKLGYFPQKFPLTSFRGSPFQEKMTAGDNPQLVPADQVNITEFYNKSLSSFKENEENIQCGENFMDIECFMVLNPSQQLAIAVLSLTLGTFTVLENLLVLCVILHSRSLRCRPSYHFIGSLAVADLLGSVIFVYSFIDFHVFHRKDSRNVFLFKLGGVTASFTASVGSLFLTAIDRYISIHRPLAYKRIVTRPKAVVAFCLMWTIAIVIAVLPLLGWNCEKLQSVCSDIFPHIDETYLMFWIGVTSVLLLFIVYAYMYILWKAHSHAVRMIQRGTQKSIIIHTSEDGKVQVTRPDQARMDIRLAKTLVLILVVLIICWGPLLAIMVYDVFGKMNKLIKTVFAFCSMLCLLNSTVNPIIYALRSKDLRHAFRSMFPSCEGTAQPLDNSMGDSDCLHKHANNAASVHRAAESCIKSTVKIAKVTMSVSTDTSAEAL
T1 sequence (P34972 whole entry): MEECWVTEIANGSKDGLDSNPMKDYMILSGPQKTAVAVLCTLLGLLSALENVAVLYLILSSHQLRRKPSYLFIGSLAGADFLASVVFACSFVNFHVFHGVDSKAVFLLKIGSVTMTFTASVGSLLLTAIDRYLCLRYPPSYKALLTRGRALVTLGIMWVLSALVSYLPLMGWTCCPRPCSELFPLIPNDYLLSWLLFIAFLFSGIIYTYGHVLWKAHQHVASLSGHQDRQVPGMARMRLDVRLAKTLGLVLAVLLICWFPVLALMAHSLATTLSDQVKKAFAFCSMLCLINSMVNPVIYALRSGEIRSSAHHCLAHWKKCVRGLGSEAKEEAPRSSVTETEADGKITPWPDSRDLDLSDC

| SMILES | inhibition at 0.2 µM (human CB-2 receptor; [1]) | inhibition at 0.2 µM (human CB1 receptor; [2]) | also measured |
| --- | --- | --- | --- |
| O=C(NN1CC2CCCC2C1)c1nn(-c2ccc(Cl)cc2Cl)c2c1CSC/C2=C\c1ccc(F)cc1 (stereo not drawn) [Cpd 116, (7Z)-1-(2,4-dichloro-phenyl)-7-(4-fluoro-benzylidene)-1,4,6,7-tetrahydro-thiopyrano[4,3-c]pyrazole-3-carboxylic acid (hexahydro-cyclopenta[c]pyrrol-2-yl)-amide] | 18% |  | IC50 (human CB1 receptor): 11 nM |
| COC[C@H]1CCCN1NC(=O)c1nn(-c2ccc(Cl)cc2Cl)c2c1CSC/C2=C\c1ccc(F)cc1 [Cpd 122, (7Z)-1-(2,4-dichloro-phenyl)-7-(4-fluoro-benzylidene)-1,4,6,7-tetrahydro-thiopyrano[4,3-c]pyrazole-3-carboxylic acid [(2R)-2-(methoxymethyl)-pyrrolidin-1-yl]-amide] | 18% |  | IC50 (human CB1 receptor): 6 nM |
| C[C@@H](NS(=O)(=O)/C=C/c1c2c(nn1Cc1ccccc1)CCS(=O)(=O)C2)c1ccccc1 [Cpd 4, (E)-2-(2-benzyl-5,5-dioxo-4,5,6,7-tetrahydro-2H-5λ^6-thiopyrano[4,3-c]pyrazol-3-yl)-ethenesulfonic acid [(1R)-1-phenyl-ethyl]-amide] |  |  | inhibition at 1 µM (human CB-2 receptor): 0%; inhibition at 1 µM (human CB1 receptor; [2]): 12% |
| C[C@H](NS(=O)(=O)/C=C/c1nn(-c2ccc(Cl)cc2Cl)c2c1CSCC2Cc1cccc(Cl)c1)c1ccccc1 (stereo partly drawn) [Cpd 46, (E)-2-[7-(3-chloro-benzyl)-1-(2,4-dichloro-phenyl)-1,4,6,7-tetrahydro-thiopyrano[4,3-c]pyrazol-3-yl]-ethenesulfonic acid [(1S)-1-phenyl-ethyl]-amide] | 18% | 43% |  |
| C[C@H](NS(=O)(=O)/C=C/c1nn(-c2ccc(F)cc2F)c2c1CSCC2Cc1cccc(F)c1)c1ccccc1 (stereo partly drawn) [Cpd 38, (E)-2-[1-(2,4-difluoro-phenyl)-7-(3-fluoro-benzyl)-1,4,6,7-tetrahydro-thiopyrano[4,3-c]pyrazol-3-yl]-ethenesulfonic acid [(1S)-1-phenyl-ethyl]-amide] | 15% | 28% |  |
| O=C(NCc1ccccn1)c1nn(-c2ccc(Cl)cc2Cl)c2c1CS(=O)(=O)C/C2=C\c1ccc(F)cc1 [Cpd 73, (7Z)-1-(2,4-dichloro-phenyl)-7-(4-fluoro-benzylidene)-5,5-dioxo-4,5,6,7-tetrahydro-1H-5λ^6-thiopyrano[4,3-c]pyrazole-3-carboxylic acid (pyridin-2-ylmethyl)-amide] | 13% | 56% |  |
| C[C@H](NS(=O)(=O)/C=C/c1nn(Cc2ccccc2)c2c1CSCC2)C1CCCCC1 [Cpd 12, (E)-2-(1-benzyl-1,4,6,7-tetrahydro-thiopyrano[4,3-c]pyrazol-3-yl)-ethenesulfonic acid [(1S)-1-cyclohexyl-ethyl]-amide] |  |  | inhibition at 1 µM (human CB-2 receptor): 42%; inhibition at 1 µM (human CB1 receptor; [2]): 15% |
| O=C(N[C@@H]1CCC[C@H]1O)c1nn(-c2ccc(Cl)cc2Cl)c2c1CS(=O)(=O)C/C2=C\c1ccc(F)cc1 [Cpd 67, (7Z)-1-(2,4-dichloro-phenyl)-7-(4-fluoro-benzylidene)-5,5-dioxo-4,5,6,7-tetrahydro-1H-5λ^6-thiopyrano[4,3-c]pyrazole-3-carboxylic acid [(1R,2R)-2-hydroxy-cyclopentyl]-amide] | 15% | 46% |  |
| O=C(NN1CCCCC1)c1nn(-c2ccc(Cl)cc2)c2c1CSC/C2=C\c1ccc(F)cc1 [Cpd 93, (7Z)-1-(4-chloro-phenyl)-7-(4-fluoro-benzylidene)-1,4,6,7-tetrahydro-thiopyrano[4,3-c]pyrazole-3-carboxylic acid piperidin-1-ylamide] | 26% |  | IC50 (human CB1 receptor): 36 nM |
| C[C@@H](NS(=O)(=O)/C=C/c1nn(Cc2ccccc2)c2c1CSCC2)C1CCCCC1 [Cpd 11, (E)-2-(1-benzyl-1,4,6,7-tetrahydro-thiopyrano[4,3-c]pyrazol-3-yl)-ethenesulfonic acid [(1R)-1-cyclohexyl-ethyl]-amide] |  |  | inhibition at 1 µM (human CB-2 receptor): 39%; inhibition at 1 µM (human CB1 receptor; [2]): 29% |
| C[C@@H](NC(=O)c1c2c(nn1-c1ccc(Cl)cc1Cl)/C(=C/c1ccc(F)cc1)CSC2)c1ccccc1 [Cpd 78, (7Z)-2-(2,4-dichloro-phenyl)-7-(4-fluoro-benzylidene)-2,4,6,7-tetrahydro-thiopyrano[4,3-c]pyrazole-3-carboxylic acid [(1R)-1-phenyl-ethyl]-amide] | 11% | 62% |  |
| C[C@H](NS(=O)(=O)/C=C/c1nn(Cc2ccccc2)c2c1CS(=O)(=O)CC2)C1CCCCC1 [Cpd 15, (E)-2-(1-benzyl-5,5-dioxo-4,5,6,7-tetrahydro-1H-5λ^6-thiopyrano[4,3-c]pyrazol-3-yl)-ethenesulfonic acid [(1S)-1-cyclohexyl-ethyl]-amide] |  |  | inhibition at 1 µM (human CB-2 receptor): 0%; inhibition at 1 µM (human CB1 receptor; [2]): 4% |
| C[C@@H](NC(=O)c1nn(-c2ccc(Cl)cc2)c2c1CS(=O)(=O)C/C2=C\c1ccc(F)cc1)c1ccccc1 [Cpd 95, (7Z)-1-(4-chloro-phenyl)-7-(4-fluoro-benzylidene)-5,5-dioxo-4,5,6,7-tetrahydro-1H-5λ^6-thiopyrano[4,3-c]pyrazole-3-carboxylic acid [(1R)-1-phenyl-ethyl]-amide] |  |  | inhibition at 0.2 µM (human CB-2 receptor): 15%; IC50 (human CB1 receptor): 9 nM |
| C[C@@H](NS(=O)(=O)/C=C/c1c2c(nn1Cc1ccccc1)CCSC2)c1ccccc1 [Cpd 2, (E)-2-(2-benzyl-2,4,6,7-tetrahydro-thiopyrano[4,3-c]pyrazol-3-yl)-ethenesulfonic acid [(1R)-1-phenyl-ethyl]-amide] |  |  | inhibition at 1 µM (human CB-2 receptor): 0%; inhibition at 1 µM (human CB1 receptor; [2]): 13% |
| C[C@@H](NC(=O)c1nn(-c2ccc(Cl)cc2Cl)c2c1CS(=O)(=O)C/C2=C\c1ccc(Cl)o1)C1CCCCC1 [Cpd 118, (7Z)-7-(5-chloro-furan-2-ylmethylene)-1-(2,4-dichloro-phenyl)-5,5-dioxo-4,5,6,7-tetrahydro-1H-5λ^6-thiopyrano[4,3-c]pyrazole-3-carboxylic acid [(1R)-1-cyclohexyl-ethyl]-amide] | 11% |  | IC50 (human CB1 receptor): 8 nM |
| O=C(NCc1ccccn1)c1nn(-c2ccc(Cl)cc2Cl)c2c1C[S+]([O-])C/C2=C\c1ccc(F)cc1 (stereo not drawn) [Cpd 80, (7Z)-1-(2,4-dichloro-phenyl)-7-(4-fluoro-benzylidene)-5-oxo-4,5,6,7-tetrahydro-1H-5λ^4-thiopyrano[4,3-c]pyrazole-3-carboxylic acid (pyridin-2-ylmethyl)-amide] | 2% | 21% |  |
| C[C@H](NC(=O)/C=C/c1nn(Cc2ccccc2)c2c1CSCC2)c1ccccc1 [Cpd 32, (2E)-3-(1-benzyl-1,4,6,7-tetrahydro-thiopyrano[4,3-c]pyrazol-3-yl)-N-[(1S)-1-phenyl-ethyl]-acrylamide] |  |  | inhibition at 10 µM (human CB-2 receptor; test concentration 10 μM (superscript c)): 47%; inhibition at 10 µM (human CB1 receptor; test concentration 10 μM (superscript c), read-out: CB1 binding percent inhibition): 35% |
| O=C(c1nn(-c2ccc(Cl)cc2Cl)c2c1CSC/C2=C\c1ccc(F)cc1)N1CCCC1 [Cpd 57, (7Z)-[1-(2,4-dichloro-phenyl)-7-(4-fluoro-benzylidene)-1,4,6,7-tetrahydro-thiopyrano[4,3-c]pyrazol-3-yl]-pyrrolidin-1-yl-methanone] | 21% | 56% |  |
| O=C(N[C@@H]1CCC[C@H]1O)c1nn(-c2ccc(Cl)cc2Cl)c2c1CSC/C2=C\c1ccc(F)cc1 [Cpd 60, (7Z)-1-(2,4-dichloro-phenyl)-7-(4-fluoro-benzylidene)-1,4,6,7-tetrahydro-thiopyrano[4,3-c]pyrazole-3-carboxylic acid [(1R,2R)-2-hydroxy-cyclopentyl]-amide] | 17% | 60% |  |
| CN1CCN(NC(=O)c2nn(-c3ccc(Cl)cc3Cl)c3c2CSC/C3=C\c2ccc(F)cc2)CC1 [Cpd 113, (7Z)-1-(2,4-dichloro-phenyl)-7-(4-fluoro-benzylidene)-1,4,6,7-tetrahydro-thiopyrano[4,3-c]pyrazole-3-carboxylic acid (4-methyl-piperazin-1-yl)-amide] | 0% | 17% |  |
| O=C(NN1CC2CCCC2C1)c1c2c(nn1-c1ccc(Cl)cc1Cl)/C(=C/c1ccc(F)cc1)CS(=O)(=O)C2 (stereo not drawn) [Cpd 87, (7Z)-2-(2,4-dichloro-phenyl)-7-(4-fluoro-benzylidene)-5,5-dioxo-4,5,6,7-tetrahydro-2H-5λ^6-thiopyrano[4,3-c]pyrazole-3-carboxylic acid (hexahydro-cyclopenta[c]pyrrol-2-yl)-amide] | 4% |  | IC50 (human CB1 receptor): 18 nM |
